One assay concerns the target mGlu2 (Rattus norvegicus (Rat), UniProt P31421). Nature of the assay: mGlu2 GIRK thallium flux assay.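 On all read-outs here: Cell-based assay, rate of fluorescence rise right after thallium plus agonist addition read on a kinetic imaging plate reader, normalized to vehicle and maximal agonist control.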 The settings on record: for EC50: read-out: mGlu2 PAM EC50, test compound, then EC20 glutamate […] later in the presence of thallium; for Emax: read-out: mGlu2 PAM Max.
The target in another assay is mGlu3 (Rattus norvegicus (Rat), UniProt P31422). Nature of the assay: mGlu3 GIRK thallium flux assay.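 On all read-outs here: kinetic fluorescence slope read shortly after thallium plus agonist addition, scaled between vehicle and maximal agonist control.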 The note with it: for EC50: read-out: mGlu3 PAM EC50, test compound, then EC20 glutamate […] later in the presence of thallium; for Emax: read-out: mGlu3 PAM Max.
Where [1] appears, read: PAM mode, mean ± SEM, at least three experiments.

Bounds are passed on as bounds.

Chain of mGlu2 (P31421 19-872): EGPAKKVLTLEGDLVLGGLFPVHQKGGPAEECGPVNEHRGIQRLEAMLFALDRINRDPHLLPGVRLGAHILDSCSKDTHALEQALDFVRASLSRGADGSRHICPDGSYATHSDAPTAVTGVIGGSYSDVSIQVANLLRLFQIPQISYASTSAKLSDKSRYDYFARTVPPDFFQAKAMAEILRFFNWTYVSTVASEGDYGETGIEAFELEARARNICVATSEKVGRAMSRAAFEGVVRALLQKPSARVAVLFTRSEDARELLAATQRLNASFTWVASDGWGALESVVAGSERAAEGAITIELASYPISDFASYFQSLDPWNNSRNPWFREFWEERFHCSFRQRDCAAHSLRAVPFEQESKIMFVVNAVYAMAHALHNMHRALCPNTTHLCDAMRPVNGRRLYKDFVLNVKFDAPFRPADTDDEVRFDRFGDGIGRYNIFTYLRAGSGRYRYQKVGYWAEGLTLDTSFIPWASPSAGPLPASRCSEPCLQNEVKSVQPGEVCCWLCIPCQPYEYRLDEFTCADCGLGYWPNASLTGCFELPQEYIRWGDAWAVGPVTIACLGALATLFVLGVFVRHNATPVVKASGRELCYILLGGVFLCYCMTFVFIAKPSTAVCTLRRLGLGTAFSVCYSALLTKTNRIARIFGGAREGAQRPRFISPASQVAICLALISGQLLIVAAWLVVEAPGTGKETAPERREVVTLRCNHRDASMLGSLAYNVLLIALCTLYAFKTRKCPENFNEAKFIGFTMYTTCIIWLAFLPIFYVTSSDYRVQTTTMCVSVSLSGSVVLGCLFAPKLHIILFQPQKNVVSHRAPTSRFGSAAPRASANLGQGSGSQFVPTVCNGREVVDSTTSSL
Chain of mGlu3 (P31422 23-879): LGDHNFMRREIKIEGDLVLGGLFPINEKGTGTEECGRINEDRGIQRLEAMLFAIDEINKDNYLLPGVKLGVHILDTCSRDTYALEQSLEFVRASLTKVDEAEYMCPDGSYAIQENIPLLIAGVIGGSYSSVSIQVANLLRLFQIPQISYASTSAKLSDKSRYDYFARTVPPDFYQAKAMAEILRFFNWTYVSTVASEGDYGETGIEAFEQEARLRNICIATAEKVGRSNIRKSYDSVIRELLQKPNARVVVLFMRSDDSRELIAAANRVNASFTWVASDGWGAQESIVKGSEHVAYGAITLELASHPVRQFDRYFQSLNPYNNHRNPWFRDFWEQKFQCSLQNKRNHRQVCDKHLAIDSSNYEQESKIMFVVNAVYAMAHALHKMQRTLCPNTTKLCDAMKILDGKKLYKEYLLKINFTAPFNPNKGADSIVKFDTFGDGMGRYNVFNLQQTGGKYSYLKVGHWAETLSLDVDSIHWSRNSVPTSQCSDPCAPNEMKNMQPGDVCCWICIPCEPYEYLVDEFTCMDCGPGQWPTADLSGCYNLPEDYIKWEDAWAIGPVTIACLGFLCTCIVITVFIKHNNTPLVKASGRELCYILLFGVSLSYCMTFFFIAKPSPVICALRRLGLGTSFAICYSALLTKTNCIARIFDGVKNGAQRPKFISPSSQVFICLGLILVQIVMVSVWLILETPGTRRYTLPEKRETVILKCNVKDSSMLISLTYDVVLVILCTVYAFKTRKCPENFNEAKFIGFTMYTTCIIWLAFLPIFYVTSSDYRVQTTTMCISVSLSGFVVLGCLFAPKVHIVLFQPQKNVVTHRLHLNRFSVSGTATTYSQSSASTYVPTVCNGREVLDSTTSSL

`COc1ccc(C#N)cc1OCCCCOc1ccc(C(=O)CC(C)(C)C)c(O)c1C` [compound 91, 3-(4-(4-(3,3-Dimethylbutanoyl)-3-hydroxy-2-methylphenoxy)butoxy)-4-methoxybenzonitrile]: the EC50 – broadly, the concentration at which the effect is half-maximal – is > 10 µM on mGlu2 (setting [1]) and > 30 µM on mGlu3 (PAM mode, mean ± SEM). The results for the Emax at mGlu2 and at mGlu3 were 48.2 ± 7.4% and 33.7 ± 7.4%, respectively.

As for `Cc1c(OCc2cccc(-c3cccc(C(=O)O)c3)c2)ccc(C(=O)C(C)C)c1O` [compound 131, 3′-((3-Hydroxy-4-isobutyryl-2-methylphenoxy)methyl)-[1,1′-biphenyl]-3-carboxylic acid], the 50% effective concentration (EC50) worked out at 0.222 ± 0.082 µM on mGlu2 (setting [1]) and 1.75 ± 0.891 µM at mGlu3 (PAM mode, mean ± SEM). The figures for the Emax on mGlu2 and at mGlu3 were 83.2 ± 12.3% and 55 ± 24.4%, respectively.

As for `Cc1c(OCCCCOc2ccccn2)ccc(C(=O)CC(C)C)c1C` [Compound 183], the 50% effective concentration (EC50) on mGlu2 (setting [1]) is > 10 µM; on mGlu3 (PAM mode, mean ± SEM), > 30 µM.

Regarding `Cc1c(OCc2cccc(-c3cccc(C(=O)O)c3)c2)ccc(C(=O)CC2CCCC2)c1O` [compound 129, 3′-((4-(2-Cyclopentylacetyl)-3-hydroxy-2-methylphenoxy)methyl)-[1,1′-biphenyl]-3-carboxylic acid], the EC50 on mGlu2 (setting [1]) amounted to 0.616 ± 0.217 µM; on mGlu3 (PAM mode, mean ± SEM), 3.56 ± 1.94 µM. For the same molecule, the Emax at mGlu2 amounted to 97.5 ± 9%; on mGlu3, 94 ± 10.1%.

Take `COc1ccc(C(=O)NC2CCCC2)cc1OCCCCOc1ccc(C(=O)CC(C)(C)C)c(O)c1C` [compound 112, N-Cyclopentyl-3-(4-(4-(3,3-dimethylbutanoyl)-3-hydroxy-2-methylphenoxy)butoxy)-4-methoxybenzamide]: the EC50 is > 10 µM on mGlu2 (setting [1]) and > 30 µM on mGlu3 (PAM mode, mean ± SEM). Also, the Emax on mGlu2 was 35 ± 5.8%; at mGlu3, 40.3 ± 1.6%.

As to `Cc1c(OCc2cccc(-c3ccc(C(=O)O)cc3)c2)ccc(C(=O)CC(C)(C)C)c1O` [compound 132, 3′-((4-(3,3-Dimethylbutanoyl)-3-hydroxy-2-methylphenoxy)methyl)-[1,1′-biphenyl]-4-carboxylic acid], the half-maximal effective concentration (EC50) worked out at 0.561 ± 0.063 µM on mGlu2 (setting [1]) and 1.64 ± 0.487 µM on mGlu3 (PAM mode, mean ± SEM). Moreover, the results for the Emax on mGlu2 and at mGlu3 were 90.5 ± 13.8% and 57.5 ± 20.9%, respectively.

With `Cc1c(OCc2nnc(-c3cccc(C(=O)O)c3)s2)ccc(C(=O)CC(C)(C)C)c1O` [compound 165, 3-(5-((4-(3,3-Dimethylbutanoyl)-3-hydroxy-2-methylphenoxy)methyl)-1,3,4-thiadiazol-2-yl)benzoic acid], the concentration for a half-maximal effect (EC50) on mGlu2 (setting [1]) came out at 1.658 ± 0.008 µM; on mGlu3 (PAM mode, mean ± SEM) it was 1.41 ± 0.034 µM. For the same molecule, the Emax was 85.6 ± 1.3% on mGlu2 and 95 ± 2.5% on mGlu3.

Turning to `COC(=O)c1ccc(OCc2cccc(COc3ccc(C(=O)CC(C)C)c(C)c3C)c2)cc1` [compound 116], the EC50 on mGlu2 (setting [1]) is > 30 µM; on mGlu3 (PAM mode, mean ± SEM), > 30 µM.

Take `Cc1c(OCc2cccc(COc3ccc(C(=O)O)cc3)c2)ccc(C(=O)CC(C)C)c1O` [compound 125]: the “mGlu2 PAM Max” value on mGlu2 (PAM mode, % Glutamate Max, mean ± SEM, at least three experiments) turned out to be 82.7 ± 7.2%. Further, the EC50 is 0.238 ± 0.051 µM at mGlu2 (setting [1]) and > 30 µM on mGlu3 (PAM mode, mean ± SEM). Also, at mGlu3 (PAM mode, % Glutamate Max, mean ± SEM), the “mGlu3 PAM Max” value was determined as 13.9 ± 3.1%.

For `COC(=O)CCc1cc(OCCCCOc2ccc(C(=O)CC(C)C)c(O)c2C)ccc1O` [compound 85], the EC50 on mGlu2 (setting [1]) was > 10 µM; on mGlu3 (PAM mode, mean ± SEM), > 30 µM.

As for `Cc1c(OCCCCOc2cccc(C(=O)O)c2)ccc(C(=O)CC(C)C)c1C` [Compound 22, 3-(4-(2,3-Dimethyl-4-(3-methylbutanoyl)phenoxy)butoxy)benzoic acid], the EC50 at mGlu2 (setting [1]) was > 30 µM; at mGlu3 (PAM mode, mean ± SEM) it was > 30 µM.

For `Cc1c(OCCCCSc2ccncc2)ccc(C(=O)CC2CCCC2)c1C` [Compound 188], the concentration for a half-maximal effect (EC50) at mGlu2 (setting [1]) was > 30 µM; on mGlu3 (PAM mode, mean ± SEM) it was > 30 µM.

Consider `CCCc1c(OCCCCOc2ccc(C(=O)O)cc2OC)ccc(C(C)=O)c1O` [Compound 190, 4-(4-(4-Acetyl-3-hydroxy-2-propylphenoxy)butoxy)-3-methoxybenzoic acid], for which the Emax is 64.9 ± 5.1% on mGlu2 and 12.1 ± 12.8% at mGlu3.

Take `Cc1c(OCCCCOc2ccc(CCC(=O)O)c(O)c2)ccc(C(=O)CC(C)C)c1C` [compound 111]: the EC50 at mGlu2 (setting [1]) was > 10 µM; at mGlu3 (PAM mode, mean ± SEM) it was > 30 µM.

Values taken from US10099993B2, “Metabotropic glutamate receptor positive allosteric modulators (PAMS) and uses thereof” (Sanford-Burnham Medical Research Institute, priority 2014, dated 2018).
